# Measurements taken from US8318947B2, “Comestible compositions comprising high potency savory flavorants, and processes for producing them” (Senomyx, Inc., priority 2006, dated 2012).
# Columns and labels:
# [1] = system: human panelists, savory taste; test: Savory taste test with trained human panel (difference from reference); assay type: in vivo; conditions: for Taste Data: cpd concentration at which 12 mM MSG + cpd is as strong as 12 mM MSG + 100 μM IMP: with 12 mM MSG, reference 12 mM MSG + 100 μM IMP
# Method: General Panelist Selection: Basic screening of sensory taste testers: Potential panelists were tested for their abilities to rank and rate intensities of solutions representing the five basic tastes. Panelists ranked and rated intensity of five different concentrations of each of the five following compounds: sucrose (sweet), sodium chloride (salty), citric acid (sour), caffeine (bitter), and monosodium glutamate (savory). In order to be selected for participation in testing, panelists needed to correctly rank and rate samples for intensity, with a reasonable number of errors.
# Preliminary Taste Tests: The panelists selected in the above procedure were deemed qualified for performing Preliminary Taste Testing procedures. The preliminary taste tests are used to evaluate new compounds for intensity of basic tastes and off-tastes. A small group of panelists (n=5) taste approximately 5 concentrations of the compound (range typically between 1-100 μM, in half-log cycles, e.g., 1, 3, 10, 30, and 100 μM) in water and in a solution of 12 mM MSG to evaluate enhancement. Panelists rate the five basic tastes (sweet, salty, sour, bitter, and savory) as well as off-tastes (such as chemical, metallic, sulfur) on a labeled magnitude scale. Samples are served in 10 mL portions at room temperature. The purpose of the test is to determine the highest concentration at which there is no objectionable off-taste, and determine if obvious savory taste or enhancement of savory taste exists at any of the concentrations tested.
# Trained Panelist Selection: A trained expert panel was used to further evaluate compounds that had been tested with the preliminary taste test.
# Panelists for the trained panel were selected from the larger group of qualifying taste panelists. Panelists were further trained on savory taste by ranking and rating experiments using MSG and IMP combinations. Panelists completed a series of ranking, rating, and difference from reference tests with savory solutions. In ranking and rating experiments, panelists evaluated easy MSG concentrations (0, 6, 18, 36 mM) and more difficult MSG concentrations (3, 6, 12, 18 mM MSG) in water.
# Compound testing with Trained Panel: Compounds tested by the trained panel were evaluated in difference from reference experiments. […] Test samples were solutions with varying amounts of MSG, IMP, and the compound. Typically, each session compares the reference sample to numerous test samples. […] Compounds were tested against the reference in samples with and without 12 mM MSG. All samples were presented in 10 ml volumes at room temperature. Two sessions were completed for each compound tested to evaluate panel reproducibility.
# [2] = system: external tasters; test: Cajun BBQ potato chips focus group taste test; assay type: in vivo, human; conditions: chips with 3 ppm compound; eleven panelists
# Method: Two solid savory flavor concentrate compositions were prepared by spray drying procedures equivalent to those reported in Example 35. One savory flavor concentrate sample, comprising 0.01% (wt/wt) of the compound of Example 1 was prepared via from the compound of Example 1, Neobee M-5 medium chain triglycerides, N-Lok 1930 modified food starch, and maltodextrin. Another savory flavor concentrate sample, comprising 0.01% (wt/wt) of the compound of Example 24 was similarly prepared via from the compound of Example 24, Neobee M-5 medium chain triglycerides, N-Lok 1930 modified food starch, and maltodextrin. A basic dry seasoning mix for providing Cajun flavor for the chips was prepared by dry blending the ingredients in Table 38-1 using a […] blender for 5 minutes at 40-80 rpms using a wire whip attachment. Kettle® Unsalted potato chips were hand broken into reasonably uniform 1⁄2''×1⁄2'' pieces and placed in a polyethylene 26.7 cm×27.9 cm non-vented food bag. The chips were then heated in an Amana Commercial 1200 watt microwave for 20 seconds to release oils, and so the seasoning would adhere to the chips. […] The panelists evaluated the four sample types of Cajun BBQ chips in a Focus Group taste test procedure and were instructed to write comments on several attributes: sweet, BBQ, Cajun spice, pepper, onion, salt, potato, umami, off tastes, other, and liking or disliking. […]
compound,measurement,setting,value
"COc1ccc(CNC(=O)C(=O)NCCc2ccccn2)c(OC)c1 [Example 24, N-(2,4-Dimethoxy-benzyl)-N′-(2-pyridin-2-yl-ethyl)-oxalamide]",Taste Data: cpd concentration as strong as 12 mM MSG,"[1]; compound alone, without MSG",1 μM cpd as strong as
same,Taste Data: cpd concentration at which 12 mM MSG + cpd is as strong as 12 mM MSG + 100 μM IMP,[1],12 mM MSG + 1 μM cpd as
same,Panelists reporting higher intensity of Cajun spice and pepper flavors,[2],9/11
"CCCC(CCC)NC(=O)c1ccc2c(c1)OCO2 [Example 1, N-(heptan-4-yl)benzo[d][1,3]dioxole-5-carboxamide]",Taste Data: cpd concentration at which 12 mM MSG + cpd is as strong as 12 mM MSG + 100 μM IMP,[1],12 mM MSG + 3 μM cpd as
same,Panelists reporting higher intensity of Cajun spice and pepper flavors,[2],9/11
